Laboratory results from patent US20120264949A1, “Method of Labeling Dopamine D2 Receptor Using Radiosynthesized Ligand of Iodine-123-Epidepride” (ATOMIC ENERGY COUNCIL-INSTITUTE OF NUCLEAR ENERGY RESEARCH, priority 2011, published 2012).
pKd: −log10 of the molar value.

How the values were obtained:
[1] = Lipophilicity, octanol/PBS partition with gamma-counter; assay type: physicochemical
Description: For analyzing lipophilicity of the I-123-Epidepride, a solution of phosphate buffer saline (PBS) is used with lipophilic octanol. After 50 μl of I-123-Epidepride, 0.5 ml of PBS and 0.5 ml of octanol are mixed, a diluted octanol solution is obtained with an aqueous solution which has an equal weight as the octanol solution and then is processed with a gamma-counter. Therein, the lipophilicity of the I-123-Epidepride is expressed as a value of log P and log P is obtained by the following formula: Log P=Log {(Decay corrected activity)organic layer×10/(Decay corrected activity)aqueous layer}.
FIG. 6 and FIG. 7 are views showing lipophilicity and labeling results. […] Besides, the labeling method according to the present disclosure obtains 20 mCi each time for three times with an average radiochemistry purity of 99.55±0.8% and an average yield of 74.83±2.4% (shown in FIG. 7).

[2] = Stability after standing 24 hours, radiochemistry purity measured; assay type: physicochemical; details: stayed still for 24 hours
Description: FIG. 8A and FIG. 8B are views showing stability at 0 hour and 24 hour. As shown in the figures, after the I-123-Epidepride is stayed still for 24 hours, its radiochemistry purity is measured. As shown by the liquid peaks, [32], the stability is higher than 90%.

dopamine D2 receptors [3] = target: T1, dopamine D2 receptors (Mus musculus, UniProt P61168); test: microSPECT/microCT imaging of mouse brain; assay type: in vivo; details: 5 mCi injected, striatum, thalamus and midbrain
T1 construct: from tissue; host or cells: mouse brain in vivo (striatum, thalamus, midbrain)
T1 sequence (P61168 whole entry): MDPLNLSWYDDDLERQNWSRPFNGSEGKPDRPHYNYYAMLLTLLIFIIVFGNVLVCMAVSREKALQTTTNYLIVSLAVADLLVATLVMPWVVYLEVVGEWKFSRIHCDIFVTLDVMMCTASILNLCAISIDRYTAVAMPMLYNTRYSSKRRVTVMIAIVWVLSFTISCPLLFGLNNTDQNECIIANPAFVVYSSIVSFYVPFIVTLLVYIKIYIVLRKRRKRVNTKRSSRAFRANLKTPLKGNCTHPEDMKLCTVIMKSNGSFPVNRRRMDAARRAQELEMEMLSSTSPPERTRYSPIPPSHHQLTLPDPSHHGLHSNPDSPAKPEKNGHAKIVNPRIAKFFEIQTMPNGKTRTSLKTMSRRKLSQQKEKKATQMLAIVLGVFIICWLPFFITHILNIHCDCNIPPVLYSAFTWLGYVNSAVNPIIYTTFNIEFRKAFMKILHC
Description: FIG. 9 is a view showing a combined image of a mouse brain obtained through microSPECT and microCT. As shown in the figure, a combined image of a mouse brain is obtained through microSPECT and microCT, where 5 mCi of I-123-Epidepride is injected into the mouse brain.

dopamine D2 receptors [4] = target: dopamine D2 receptors (Homo sapiens, UniProt P14416); details: imaging agent for dopamine D2 receptors; cited from earlier work
Chain of dopamine D2 receptors (Homo sapiens, UniProt P14416) (P14416 whole entry): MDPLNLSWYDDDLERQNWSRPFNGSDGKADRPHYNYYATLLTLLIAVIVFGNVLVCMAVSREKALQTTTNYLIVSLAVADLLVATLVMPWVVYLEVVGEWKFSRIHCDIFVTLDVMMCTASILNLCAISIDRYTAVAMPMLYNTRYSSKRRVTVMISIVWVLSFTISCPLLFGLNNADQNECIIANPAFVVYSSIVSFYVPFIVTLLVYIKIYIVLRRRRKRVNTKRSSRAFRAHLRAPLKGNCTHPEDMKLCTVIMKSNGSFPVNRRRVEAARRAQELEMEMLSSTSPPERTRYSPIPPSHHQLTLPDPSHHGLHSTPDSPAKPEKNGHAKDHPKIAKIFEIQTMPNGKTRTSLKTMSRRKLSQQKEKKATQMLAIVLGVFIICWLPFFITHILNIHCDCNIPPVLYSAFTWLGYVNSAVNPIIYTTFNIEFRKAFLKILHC

Compound	log P value [1]	stability (radiochemistry purity after 24 hours) [2]	brain uptake in combined microSPECT/microCT image (dopamine D2 receptors [3])	pKd (dopamine D2 receptors [4])
CCN1CCC[C@H]1CNC(=O)c1cc(I)cc(OC)c1OC [I-123-Epidepride]	1.76±0.04	higher than 90%	obvious absorption is found in striatum [41], thalamus and midbrain [42]	–
CCN1CCC[C@H]1CNC(=O)c1c(OC)ccc(I)c1O [IBZM]	–	–	–	9.37
